Results: patent publication US10000473B2, “Indazole derivatives useful as glucagon receptor antagonists” (Janssen Pharmaceutica NV, priority 2016, dated 2018)

Molecular target: T1, human GCGR (Homo sapiens, UniProt P47871)
T1 construct: expressed in transfected cells; host or cells: HEK293 (hGluc-1HEK), pcDNA3.1, G418 selection
Test: Cellular functional assay, cAMP readout (glucagon-stimulated cAMP, LANCE TR-FRET)
Format: cell-based
Settings: HEK293 cells stably expressing full-length human GCGR; glucagon 100 pM; IC50 converted to Ki; read-out: Inhibition of cAMP Ki

T1 sequence (P47871 26-477): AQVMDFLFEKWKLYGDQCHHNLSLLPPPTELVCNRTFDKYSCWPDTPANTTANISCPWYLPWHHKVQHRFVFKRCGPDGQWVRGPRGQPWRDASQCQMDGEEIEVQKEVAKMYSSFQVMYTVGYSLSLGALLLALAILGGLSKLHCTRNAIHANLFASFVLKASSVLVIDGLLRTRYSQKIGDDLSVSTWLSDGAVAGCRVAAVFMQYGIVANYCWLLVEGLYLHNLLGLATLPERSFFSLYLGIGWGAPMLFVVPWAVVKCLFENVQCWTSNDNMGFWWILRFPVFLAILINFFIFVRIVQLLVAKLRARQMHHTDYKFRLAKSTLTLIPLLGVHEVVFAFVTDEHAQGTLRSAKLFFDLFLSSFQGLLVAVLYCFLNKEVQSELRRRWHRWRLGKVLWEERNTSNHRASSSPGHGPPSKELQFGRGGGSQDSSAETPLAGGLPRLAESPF

SMILES | Ki [nM]
CC(C)CC(c1ccc(C(=O)NCCC(=O)O)cc1)n1cc2cc(-c3ccc4ncccc4c3)ccc2n1 (centres unmarked) [compound 121] | 700
O=C(O)CCNC(=O)c1ccc(C(CCC(F)(F)F)n2cc3cc(-c4ccc(C(F)(F)F)cc4Cl)ccc3n2)cc1 (centres unmarked) [Compound #16, 3-[[4-[1-[5-[2-Chloro-4-(trifluoromethyl)phenyl]indazol-2-yl]-4,4,4-trifluorobutyl]benzoyl]amino]propanoic acid] | 65
Cc1cc(C(F)(F)F)ccc1-c1ccc2c(cnn2C(CC(C)C)c2ccc(C(=O)NCCC(=O)O)cc2)c1Cl (centres unmarked) [Compound #135, 3-(4-(1-(4-Chloro-5-(2-methyl-4-(trifluoromethyl)phenyl)-1H-indazol-1-yl)-3-methylbutyl)benzamido)propanoic acid] | 100
CCCCCCC(c1ccc(C(=O)NCCC(=O)O)cc1)n1cc2cc(-c3ccc(C(F)(F)F)cc3)ccc2n1 (centres unmarked) [Compound #26] | 45
O=C(O)CCNC(=O)c1ccc(C(CCC(F)(F)F)n2ncc3cc(-c4ccc(C(F)(F)F)c(Cl)c4)ccc32)cc1 (centres unmarked) [Compound #111, 3-[[4-[1-[5-[3-Chloro-4-(trifluoromethyl)phenyl]indazol-1-yl]-4,4,4-trifluorobutyl]benzoyl]amino]propanoic acid] | > 1300
CCCCCC(c1ccc(C(=O)NCCC(=O)O)cc1)n1ncc2cc(-c3ccc(C(F)(F)F)cc3)ccc21 (centres unmarked) [compound 89] | 130
CC(c1ccc(C(=O)NCCC(=O)O)cc1)n1cc2cc(-c3ccc(C(C)(C)C)cc3)ccc2n1 (centres unmarked) [Compound #161, 3-(4-(1-(5-(4-(tert-butyl)phenyl)-2H-indazol-2-yl)ethyl)benzamido) propanoic acid] | 3200
O=C(O)CCNC(=O)c1ccc(C(CCC(F)(F)C(F)(F)F)n2ncc3cc(-c4ccc(C(F)(F)F)cc4)ccc32)cc1 (centres unmarked) [compound 100] | 550
O=C(O)CCNC(=O)c1ccc(C(c2ccc(C(F)(F)F)cc2)n2ncc3cc(-c4ccc(C(F)(F)F)cc4)ccc32)cc1 (centres unmarked) [Compound #101, 3-(4-((4-(Trifluoromethyl)phenyl)(5-(4-(trifluoromethyl)phenyl)-1H-indazol-1-yl)methyl)benzamido)propanoic acid] | 800
CC(C)CCn1cc(-c2ccc3nn(C(CC(C)C)c4ccc(C(=O)NCCC(=O)O)cc4)cc3c2)cn1 (centres unmarked) [Compound #17] | > 5200
CCCCCCC(c1ccc(C(=O)NCCC(=O)O)cc1)n1ncc2cc(-c3ccc(Cl)cc3C)ccc21 (centres unmarked) [compound 245] | 210
CC(C)CC(c1ccc(C(=O)NCCC(=O)O)cc1)n1ncc2cc(-c3ccc(Cl)cc3Cl)ccc21 (centres unmarked) [Compound #9, 3-(4-(1-(5-(2,4-Dichlorophenyl)-1H-indazol-1-yl)-3-methylbutyl)benzamido)propanoic acid] | 190
Cc1cc(Cl)ccc1-c1ccc2c(cnn2C(CC2CCCCC2)c2ccc(C(=O)NCCC(=O)O)nc2)c1 (centres unmarked) [compound 183] | 350
Cc1cc2nn(C(CC(C)C)c3ccc(C(=O)NCCC(=O)O)nc3)cc2cc1-c1ccc(C(F)(F)F)cc1Cl (centres unmarked) [Compound #242, 3-[[5-[1-[5-[2-Chloro-4-(trifluoromethyl)phenyl]-6-methyl-indazol-2-yl]-3-methyl-butyl]pridine-2-carbonyl]amino]propanoic acid] | 65
CC(C)CC(c1ccc(C(=O)NCCC(=O)O)nc1)n1ncc2cc(-c3cc4ccccc4o3)ccc21 (centres unmarked) [Compound #79, 3-(5-(1-(5-(Benzofuran-2-yl)-1H-indazol-1-yl)-3-methylbutyl)picolinamido)propanoic acid] | 500
O=C(O)CCNC(=O)c1ccc(C(CCC2CCC2)n2ncc3cc(-c4ccc(C(F)(F)F)cc4)ccc32)cc1 (centres unmarked) [Compound #239, 3-(4-(3-Cyclobutyl-1-(5-(4-(trifluoromethyl)phenyl)-1H-indazol-1-yl)propyl)benzamido)propanoic acid] | 260
Cc1c(-c2ccc(C(F)(F)F)cc2Cl)ccc2c1cnn2C(CC(C)C)c1ccc(C(=O)NCCC(=O)O)cc1 (centres unmarked) [Compound #55, 3-(4-(1-(5-(2-Chloro-4-(trifluoromethyl)phenyl)-4-methyl-1H-indazol-1-yl)-3-methylbutyl)benzamido)propanoic acid] | 115
